Laboratory results reported in patent US20260007599A1, “TICAGRELOR IV FORMULATIONS FOR USE IN THE TREATMENT OF GRAM-POSITIVE BACTEREMIA” (Hyloris Developments SA, priority 2023, published 2026).

How the values were obtained:
[1] = Solubilization of ticagrelor in unbuffered cyclodextrin stock solutions in milli Q water, appearance on shaking platform; assay type: physicochemical;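 on Appearance in cyclodextrin: plus means clear and fully dissolved while plus-minus means clear solution with precipitation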
Method: In a first example two different types of cyclodextrin were used and compared for the solubilization of ticagrelor. An unbuffered stock solution of HPBCD or SBECD was made in water at the target concentrations of 20 w/w %, 25 w/w %, 30 w/w %, 35 w/w % and 40 w/w %. Ticagrelor was added slowly under vortex. Ticagrelor was used at concentrations of 5, 10 or 14 mg/ml in milli Q water. The ticagrelor-cyclodextrin solutions were left on a shaking platform. No sonification or heat was applied.

[2] = Flocculation test (20 μl sample material in 1 ml diluent); assay type: physicochemical
[3] = pH, osmolality, assay and impurities of undiluted batches; impact of buffer strength; assay type: physicochemical
Method: From the results obtained in Example 4 it follows that the concentration of excipients may be such that the resulting ticagrelor solution is hypertonic. The osmolality and pH of several batches was checked. […] In addition, a screening was conducted on the impact of buffer strength on pH and osmolality.

[4] = Clear aqueous solutions with ticagrelor-cyclodextrin inclusion complex (Table 17); assay type: physicochemical; settings: using 20-40% w/w HPβCD
[5] = 30-42% confidence interval; cited from earlier work
[6] = HPβCD 22.5% w/w, 19 mM phosphate buffer pH 7.5
[7] = HPβCD 25.0% w/w, 19 mM phosphate buffer pH 7.5
[8] = HPβCD 27.5% w/w, 19 mM phosphate buffer pH 7.5
[9] = HPβCD 30.0% w/w, 19 mM phosphate buffer pH 7.5
[10] = HPβCD 32.5% w/w, 19 mM phosphate buffer pH 7.5
[11] = phosphate buffer pH 7.5 strength 0.19 mM
[12] = phosphate buffer pH 7.5 strength 5 mM
[13] = phosphate buffer pH 7.5 strength 10 mM
[14] = phosphate buffer pH 7.5 strength 19 mM

In the case of `CCCSc1nc(N[C@@H]2C[C@H]2c2ccc(F)c(F)c2)c2nnn([C@@H]3C[C@H](OCCO)[C@@H](O)[C@H]3O)c2n1` [ticagrelor, (1S,2S,3R,5S)-3-{7-[(1R,2S)-2-(3,4-difluorophenyl)cyclopropylamino]5-(propylthio)-3H-(1,2,3)triazolo (4,5-D)pyrimidin-3-yl}-5-(2 hydroxyethoxy) cyclopentane-1,2-diol], the Appearance in cyclodextrin ([1]; HPβCD 40% w/w, ticagrelor 14 mg/ml, after 30 min of shaking) is reported as “+/−”, the Appearance in cyclodextrin ([1]; HPβCD 40% w/w, ticagrelor 14 mg/ml, after 60 min of shaking) is reported as “+/−” and the Appearance in cyclodextrin ([1]; HPβCD 40% w/w, ticagrelor 14 mg/ml, after 3 h of shaking) is reported as “+/−”. The Appearance in cyclodextrin ([1]; SBECD 35% w/w, ticagrelor 5 mg/ml, after 5 min of shaking) was “− (translucent solution with precipitation)”, the Appearance in cyclodextrin ([1]; SBECD 35% w/w, ticagrelor 5 mg/ml, after 30 min of shaking) was “+/−” and the Appearance in cyclodextrin ([1]; SBECD 35% w/w, ticagrelor 5 mg/ml, after 60 min of shaking) was “+/−”. The Appearance in cyclodextrin ([1]; SBECD 35% w/w, ticagrelor 5 mg/ml, after 3 h of shaking) was “+/−”, the Appearance in cyclodextrin ([1]; SBECD 35% w/w, ticagrelor 5 mg/ml, after overnight shaking) was “− (translucent solution with precipitation)” and the Appearance in cyclodextrin ([1]; SBECD 35% w/w, ticagrelor 10 mg/ml, after 5 min of shaking) was “− (translucent solution with precipitation)”. For the same molecule, the Appearance in cyclodextrin ([1]; SBECD 35% w/w, ticagrelor 10 mg/ml, after 30 min of shaking) was “− (translucent solution with precipitation)”, the Appearance in cyclodextrin ([1]; SBECD 35% w/w, ticagrelor 10 mg/ml, after 60 min of shaking) was “− (translucent solution with precipitation)” and the Appearance in cyclodextrin ([1]; SBECD 35% w/w, ticagrelor 10 mg/ml, after 3 h of shaking) was “− (translucent solution with precipitation)”. For the same molecule, the Appearance in cyclodextrin ([1]; SBECD 35% w/w, ticagrelor 10 mg/ml, after overnight shaking) was “− (translucent solution with precipitation)”, the Appearance in cyclodextrin ([1]; SBECD 35% w/w, ticagrelor 14 mg/ml, after 5 min of shaking) was “− (translucent solution with precipitation)” and the Appearance in cyclodextrin ([1]; SBECD 35% w/w, ticagrelor 14 mg/ml, after 30 min of shaking) was “− (translucent solution with precipitation)”. The Appearance in cyclodextrin ([1]; SBECD 35% w/w, ticagrelor 14 mg/ml, after 60 min of shaking) was “− (translucent solution with precipitation)”, the Appearance in cyclodextrin ([1]; SBECD 35% w/w, ticagrelor 14 mg/ml, after 3 h of shaking) was “− (translucent solution with precipitation)” and the Appearance in cyclodextrin ([1]; SBECD 35% w/w, ticagrelor 14 mg/ml, after overnight shaking) was “− (translucent solution with precipitation)”. The Appearance in cyclodextrin ([1]; SBECD 40% w/w, ticagrelor 10 mg/ml, after 5 min of shaking) was “− (translucent solution with precipitation)”, the Appearance in cyclodextrin ([1]; SBECD 40% w/w, ticagrelor 10 mg/ml, after 30 min of shaking) was “− (translucent solution with precipitation)” and the Appearance in cyclodextrin ([1]; SBECD 40% w/w, ticagrelor 10 mg/ml, after 60 min of shaking) was “− (translucent solution with precipitation)”. The Appearance in cyclodextrin ([1]; SBECD 40% w/w, ticagrelor 10 mg/ml, after 3 h of shaking) was “− (translucent solution with precipitation)”, the Appearance in cyclodextrin ([1]; SBECD 40% w/w, ticagrelor 10 mg/ml, after overnight shaking) was “− (translucent solution with precipitation)” and the Appearance in cyclodextrin ([1]; SBECD 40% w/w, ticagrelor 14 mg/ml, after 5 min of shaking) was “− (translucent solution with precipitation)”. The Appearance in cyclodextrin ([1]; SBECD 40% w/w, ticagrelor 14 mg/ml, after 30 min of shaking) was “− (translucent solution with precipitation)”, the Appearance in cyclodextrin ([1]; SBECD 40% w/w, ticagrelor 14 mg/ml, after 60 min of shaking) was “− (translucent solution with precipitation)” and the Appearance in cyclodextrin ([1]; SBECD 40% w/w, ticagrelor 14 mg/ml, after 3 h of shaking) was “− (translucent solution with precipitation)”. The Appearance in cyclodextrin ([1]; SBECD 40% w/w, ticagrelor 14 mg/ml, after overnight shaking) was “− (translucent solution with precipitation)”, the Appearance on standing ([1]; ticagrelor 5 mg/ml in HPBCD 40%, 35% or 30% w/w in milliQ water, at least three days at room temperature and several days at 4° C.) was “remained clear” and the Flocculation test ([2]; HPβCD 30% w/w, ticagrelor 5 mg/ml) was “passed”. The Flocculation test ([2]; HPβCD 35% w/w, ticagrelor 5 mg/ml) was “passed”, the Flocculation test ([2]; HPβCD 40% w/w, ticagrelor 5 mg/ml) was “passed” and the Flocculation test ([2]; HPβCD 40% w/w, ticagrelor 10 mg/ml) was “passed”. For the same molecule, the Flocculation test ([2]; SBECD 40% w/w, ticagrelor 5 mg/ml) was “passed”, the Assay [3, 6] was 98.15% and the Osmolality undiluted [3, 6] was 392 mOsm/kg. It also gave a Total impurities [3, 6] of 0.39%, a pH undiluted [3, 6] of 7.67 and an Assay [3, 7] of 103.23%. It also gave an Osmolality undiluted [3, 7] of 493 mOsm/kg, a Total impurities [3, 7] of 0.41% and a pH undiluted [3, 7] of 7.69. The Assay [3, 8] was 104.27%, the Osmolality undiluted [3, 8] was 549 mOsm/kg and the Total impurities [3, 8] was 0.42%. The pH undiluted [3, 8] was 7.69, the Assay [3, 9] was 107.64% and the Osmolality undiluted [3, 9] was 638 mOsm/kg. It also gave a Total impurities [3, 9] of 0.44%, a pH undiluted [3, 9] of 7.74 and an Assay [3, 10] of 99.26%. It also gave an Osmolality undiluted [3, 10] of 813 mOsm/kg, a Total impurities [3, 10] of 0.41% and a pH undiluted [3, 10] of 7.68. For the same molecule, the Assay [3, 11] was 102.23%, the Osmolality sample [3, 11] was 809 mOsm/kg and the Total impurities [3, 11] was 0.42%. It also gave a pH sample [3, 11] of 7.18, an Assay [3, 12] of 100.49% and an Osmolality sample [3, 12] of 703 mOsm/kg. It also gave a Total impurities [3, 12] of 0.40%, a pH sample [3, 12] of 7.66 and an Assay [3, 13] of 102.98%. It also gave an Osmolality sample [3, 13] of 724 mOsm/kg, a Total impurities [3, 13] of 0.42% and a pH sample [3, 13] of 7.69. For the same molecule, the Assay [3, 14] was 102.58%, the Osmolality sample [3, 14] was 758 mOsm/kg and the Total impurities [3, 14] was 0.42%. For the same molecule, the pH sample [3, 14] was 7.70, the “ticagrelor solution concentration achieved” value [4] was 5 −13 mg/ml and the Oral bioavailability [5] was 36%.
